The values that follow come from patent publication US20230112306A1, “METHODS OF CONTROLLING OR PREVENTING INFESTATION OF SOYBEAN PLANTS BY THE PHYTOPATHOGENIC MICROORGANISM CORYNESPORA CASSIICOLA” (SYNGENTA CROP PROTECTION AG, priority 2020, published 2023).

The assay relates to Corynespora cassiicola. Briefly: Corynespora cassiicola (target leaf spot) growth inhibition in nutrient broth, microtiter plate. Particulars: PDB broth, 24° C., photometric at 620 nm after 3-4 days, vs untreated check, read-out: % control of Corynespora cassiicola (inhibition of growth). It counts as cell-based. On the procedure:
Example 1: Corynespora Cassiicola (Target Leaf Spot) Conidia of the fungus from cryogenic storage were directly mixed into nutrient broth (PDB potato dextrose broth). A DMSO solution of the test compounds was placed into a microtiter plate (96-well format) and the nutrient broth containing the fungal spores was added to it. The test plates were incubated at 24° C. and the inhibition of growth (% control of Corynespora cassiicola) was determined photometrically after 3-4 days at 620 nm. The activity of a compound is derived by comparing the inhibition of growth in the treated test solution to the growth in the untreated check. The concentration of the compounds was 6.7, 2.2, 0.74, 0.25, and 0.082 ppm.

Regarding `Cc1cc(C2=NC(C)(C)C(F)(F)c3ccccc32)cnc1C(F)F` [la, 5-(4,4-Difluoro-3,3-dimethyl-3,4-dihydro-1-isoquinolyl)-2-(difluoromethyl)-3-methylpyridine], the inhibition – broadly, the drop in the measured response relative to a control, in per cent – at 0.25 ppm was not below 20%; the inhibition at 0.74 ppm was not below 50%; the inhibition at 2.2 ppm was not below 70%; the inhibition at 6.7 ppm is not below 70%.

For `CC1(C)N=C(c2cnc3c(F)cccc3c2)c2ccsc2C1(F)F` [Ic, 7,7-Difluoro-4-(8-fluoro-3-quinolyl)-6,6-dimethyl-6,7-dihydro-1-thia-5-azaindene], the inhibition at 0.25 ppm was not below 20%, the inhibition at 0.74 ppm is not below 50%, the inhibition at 2.2 ppm is not below 70% and the inhibition at 6.7 ppm was not below 70%.
